Values quoted from earlier work, collected in patent US20070218050A1, “Methods for treatment and prevention of otitis media using chemical penetration enhancers to facilitate transmembrane drug delivery into the middle ear” (Piedmont Pharmaceuticals LLC, priority 2005, published 2007).

Experiments:
[1] = concentrations at or in excess of 50% v/v, applied to the middle ear; Vassalli et al. 1988
[2] = round window membrane of the inner ear and cochlea; Marsh and Tom 1989

With `CC(O)CO` (centres unmarked) [propylene glycol] as the molecule, how does the “Damage to the middle ear” value [1] read?
Its value is “produces inflammation-related damage to the middle ear”.

What about the Inner ear ototoxicity [2] of the same molecule?
Its Inner ear ototoxicity is “implicated in inner ear ototoxicity”.
